In PMC9929232, “On-demand male contraception via acute inhibition of soluble adenylyl cyclase” (Nature Communications, 2023):
Where “and” joins values, the source holds several entries; their conditions need not be identical. Equal values may be shown once.

Assays:
[1] = target: T1, sAC-overexpressing rat 4-4 cells (Rattus norvegicus, UniProt Q9Z286); experiment: Cellular cAMP accumulation in sAC-overexpressing 4-4 cells;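 as to cAMP accumulated (%): percent of DMSO-treated control cAMP accumulation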; format: cell-based; design: cAMP accumulated: unit not given here; settings: for cAMP accumulated (%): Fig. 1d normalized replicates; for cAMP accumulated: Fig. 1d replicates
T1 construct: expressed in transfected cells
T1 sequence (Q9Z286 1-469 limits assumed): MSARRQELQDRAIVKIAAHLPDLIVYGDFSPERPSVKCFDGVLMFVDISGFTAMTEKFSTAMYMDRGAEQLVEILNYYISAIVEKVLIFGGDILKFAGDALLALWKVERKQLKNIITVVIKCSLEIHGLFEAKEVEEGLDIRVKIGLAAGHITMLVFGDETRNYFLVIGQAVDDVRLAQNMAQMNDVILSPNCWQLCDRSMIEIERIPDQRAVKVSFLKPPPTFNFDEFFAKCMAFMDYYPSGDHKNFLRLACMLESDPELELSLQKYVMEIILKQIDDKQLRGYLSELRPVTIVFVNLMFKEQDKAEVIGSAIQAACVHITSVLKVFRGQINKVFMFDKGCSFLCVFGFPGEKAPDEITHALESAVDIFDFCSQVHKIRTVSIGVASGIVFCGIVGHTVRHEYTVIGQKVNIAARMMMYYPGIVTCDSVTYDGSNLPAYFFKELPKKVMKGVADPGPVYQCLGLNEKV
Experimental: sAC-overexpressing rat 4-4 cells were generated and functionally authenticated in our laboratory as previously described[33] and grown in DMEM + 10% FBS. Cells were maintained at 37 °C in 5% CO2 and were periodically checked for mycoplasma contamination.
To assess potency in a cellular system, we utilized 4-4 cells, which stably overexpress sAC[20],[33],[56]. Cellular levels of cAMP reflect a balance between its synthesis by adenylyl cyclases and its degradation by phosphodiesterases (PDEs). […] On the day prior to the assay, 5 × 10^6 cells/ml were seeded in 24-well plates in DMEM with 10% FBS. To measure sAC-dependent cAMP accumulation, cells were pretreated for 10 min with the respective inhibitor at the indicated concentrations or DMSO as control in 300 µl fresh media. Cyclic AMP accumulation was initiated by the addition of 500 µM IBMX, and after 5 min, the media was removed, and the cells were lysed with 250 µl 0.1 M HCl by shaking at 700 rpm for 10 min.

mouse sperm = experiment: Acrosome reaction assay, mouse sperm, zona pellucidae-evoked; format: cell-based; settings: for Acrosome reacted (%), basal + db-cAMP/IBMX / Acrosome reacted (%), ZP / Acrosome reacted (%), basal / Acrosome reacted (%), ZP + db-cAMP/IBMX: Fig. 2g replicates, 5 μM TDI-10229 or 10 nM TDI-11861; for Acrosome reacted (%), basal + db-cAMP/IBMX / Acrosome reacted (%), ZP + db-cAMP/IBMX: 5 mM db-cAMP/500 μM IBMX; for Acrosome reacted (%), ZP: 50 heat-solubilized zona pellucidae; for Acrosome reacted (%), basal: 90 min capacitating media; for Acrosome reacted (%), ZP + db-cAMP/IBMX: zona pellucidae
Experimental: Zonae pellucidae were isolated from female mice superovulated by intraperitoneal injection of 10 I.U. […] 3 days before the experiment. 14 h before oocyte isolation, mice were injected with 10 I.U. pregnant mare’s serum gonadotropin. Mice were sacrificed by cervical dislocation and oviducts were dissected. Cumulus-enclosed oocytes were separated from the oviducts and placed into TYH buffer containing 300 μg/ml hyaluronidase. After 15 min, cumulus-free oocytes were transferred into fresh buffer and washed twice. Zonae pellucidae and oocytes were separated by shear forces generated by expulsion from […] pasteur pipettes. Zona pellucidae were counted, transferred into fresh buffer, and heat-solubilized by incubation for 10 min at 65 °C.
Acrosome reaction was induced by incubating mouse sperm with 50 mouse solubilized zonae pellucidae for 15 min at 37 °C. Human sperm were incubated with 10 μM progesterone for 30 min at 37 °C. […] Samples were air-dried on microscope slides and fixed for 30 minutes in 100% ethanol at room temperature (RT). For acrosome staining, mouse and human sperm were incubated for 30 min in the dark with 5 μg/ml PNA-FITC or 5 μg/ml PSA-FITC, respectively, and counterstained with 2 μg/ml DAPI. After curing, slides were analyzed using a Zeiss LSM 880 Laser Scanning Confocal Microscope; images were captured with two photomultiplier and one Gallium Arsenide Phosphide detector using ZEN Imaging software. For each condition, at least 600 cells were analyzed using ImageJ 1.52.

[2] = tested on: ejaculated uterine mouse sperm; experiment: Motility (CASA) of ejaculated uterine mouse sperm from injected males; format: in vivo; design: hyperactivated motility (%): concentration or dose not given beside the values
Experimental: (§1) For analysis of ejaculated uterine mouse sperm, the uteri of females with mating plugs were removed and placed into 1 ml TYH buffer.
For ex vivo assessment of mouse sperm from inhibitor-treated mice, sperm (25 µl) isolated at the indicated time points (15 min to 24 hours post-injection) diluted 1:5 in non-capacitating TYH buffer were loaded on a […] Leja slide (Hamilton Thorne) and placed on a microscope stage at 37 °C. Sperm movements of 10 fields of at least 200 sperm were examined using computer-assisted sperm analysis (CASA) via Hamilton–Thorne digital image analyzer (IVOS II, Hamilton Thorne Research, Beverly, MA) with the following parameters: 30 frames, frame rate: 60 Hz, cell size: 30–170 μm^2. Ejaculated uterine mouse sperm were recorded without additional dilution. Sperm were considered motile when presenting STR ≥80% and VAP ≥50 μm/s and hyperactivated when presenting VCL ≥270 μm/s, LIN < 50%, and ALH ≥7 μm. Track´s color code: motile (green), progressive (turquoise), hyperactivated (purple), slow (pink), static (red), not counted due to late entry (yellow).

hERG = settings: cited from earlier work
[3] = cited from earlier work
[4] = cited from earlier work; remark: listed apart in the source
[5] = tested on: tmACs from each subfamily; settings: cited from earlier work
[6] = tested on: ion channels, GPCRs, kinases, and nuclear receptors; settings: cited from earlier work
[7] = Pharmacokinetic analysis of TDI-11861 in blood and tissues (LC-MS); format: in vivo, mouse; settings: oral, 1 and 3 hours; caput and cauda epididymis, seminal vesicles, not testis
mice = format: in vivo; settings: for at least 24 hours
[8] = cited from earlier work; remark: listed apart in the source
[9] = tested on: ejaculated uterine mouse sperm; experiment: cAMP in ejaculated uterine mouse sperm from injected males; format: in vivo
Experimental: as §1

[10] = Fig. 4a replicates, ejaculated uterine sperm, 2 hours after 50 mg/kg i.p.

In the case of `Cc1c(Cc2ccccc2)c(-c2cc(Cl)nc(N)n2)nn1C` [TDI-10229, reference compound], the “cAMP accumulated (%)” value ([1]; printed 0) is reported as 3.303% and 10.629% and 8.51% and 2.193% and 5.92% and 3.107% and 22.11% and 16.4972% and 11.8328% and 5.524% and 4.206% and 1.889% and 2.077%, the “cAMP accumulated (%)” value ([1]; printed 0.477121) is reported as 0% and the “cAMP accumulated (%)” value ([1]; printed -0.52288) is reported as 40.0361% and 25.5301% and 16.8792% and 12.1343% and 19.6251% and 46.0455% and 19.6826% and 32.1271% and 49.6122% and 23.5829% and 24.3244% and 21.4812% and 12.9118%. For the same compound, the “cAMP accumulated (%)” value ([1]; printed -1) was 53.928% and 46.3142% and 43.7516% and 31.429% and 23.6328% and 79.7321% and 41.9299% and 71.9606% and 102.407% and 49.6166% and 29.8946% and 34.6849% and 30.4462%, the “cAMP accumulated (%)” value ([1]; printed -1.47712) was 63.9701% and 48.7859% and 51.356% and 54.7326% and 51.5128% and 120.896% and 78.187% and 107.566% and 161.903% and 63.1342% and the cAMP accumulated ([1]; concentration (uM) -1.95424 [sic]) was 47.248 and 20.896 and 22.932 and 53.28 and 23.028 and 39.526 and 63.525 and 88.135 and 120.985 and 194.007 and 68.902 and 22.685. For the same compound, the cAMP accumulated ([1]; concentration (uM) -2.43136 [sic]) was 48.561 and 22.294 and 31.915 and 66.057 and 37.215 and 54.337 and 58.571 and 46.103 and 61.044 and 66.819 and 131.064 and 78.712 and 23.002, the cAMP accumulated ([1]; concentration (uM) -2.90848 [sic]) was 49.13 and 27.611 and 32.179 and 77.343 and 38.522 and 35.67 and 62.766 and 41.76 and 54.941 and 113.858 and 170.305 and 78.712 and 23.104 and the “Acrosome reacted (%), basal + db-cAMP/IBMX” value (mouse sperm) was 27.72% and 28.24% and 29.05% and 27.83% and 24.06%. For the same compound, the “Acrosome reacted (%), ZP” value (mouse sperm) was 22.4% and 26.2% and 28.2% and 15.6% and 20%, the “Acrosome reacted (%), basal” value (mouse sperm) was 20.3% and 33.8% and 26.7% and 16.5% and 28% and the “Acrosome reacted (%), ZP + db-cAMP/IBMX” value (mouse sperm) was 32% and 38.6% and 36.8% and 38% and 41.8%.
With `Nc1nc(Cl)cc(-c2nn(C(F)F)cc2Cc2ccccc2OCCN2CCOC[C@@H]2CO)n1` [TDI-11861] the “motility of ejaculated sperm” value ([2]; 50 mg/kg i.p., retrieved from uterus post-coitus) was “immotile”, the “progressive motility (%)” value ([2]; Fig. 4b, ejaculated sperm) was 4.7% and 5.3% and 8.9% and 7% and 4% and 4.75% and 3.2% and the “hyperactivated motility (%)” value ([2]; Fig. 4c, ejaculated sperm) was 1.4% and 0.8% and 0.5% and 0.9% and 1.1%. For the same compound, the “activity in hERG electrophysiology studies” value (hERG) was “no significant activity”, the “DEREK analysis for mutagenicity risks” value [3] was “no significant activity” and the “activity in glutathione trapping assays” value [4] was “no significant activity”. The “activity against tmACs” value [5] was “no activity”, the “activity versus 46-member safety panel” value [6] was “no significant activity” and the “levels in tissues versus blood” value [7] was “correlated well with its concentration in blood”. For the same compound, the “abnormal mouse behavior after single oral dose” value (mice) was “did not cause any abnormal mouse behavior”, the “toxicity to sperm (rescue of acrosome response by cAMP/IBMX)” value (mouse sperm) was “not toxic to sperm” and the “Acrosome reacted (%), basal + db-cAMP/IBMX” value (mouse sperm) was 33.6897% and 30.4912% and 38.1667% and 17.5365% and 24% and 40.1452%. For the same compound, the “Acrosome reacted (%), ZP” value (mouse sperm) was 22.9233% and 33% and 26.2439% and 20.6667% and 34.5025% and 32.3333%, the “Acrosome reacted (%), basal” value (mouse sperm) was 31.9785% and 35% and 27.6378% and 28.974% and 29% and 25% and the “Acrosome reacted (%), ZP + db-cAMP/IBMX” value (mouse sperm) was 42.963% and 32.2222% and 37.3475% and 28% and 29.3534% and 43%. For the same compound, the “activity in AMES assays” value [8] was “no significant activity”, the “bicarbonate-induced cAMP in ejaculated sperm” value ([9]; 50 mg/kg i.p., retrieved from uterus) was “no bicarbonate-induced increase in cAMP” and the “cAMP, capacitating media” value [9, 10] was 0.692 pmol/10^6 sperm and 0.283 pmol/10^6 sperm and 0.5995 pmol/10^6 sperm and 0.72 pmol/10^6 sperm and 1.204 pmol/10^6 sperm and 0.492 pmol/10^6 sperm and 0.468 pmol/10^6 sperm and 0.24 pmol/10^6 sperm. For the same compound, the “cAMP, non-capacitating media” value [9, 10] was 0.738 pmol/10^6 sperm and 1.2045 pmol/10^6 sperm and 0.9637 pmol/10^6 sperm and 0.847 pmol/10^6 sperm and 1.232 pmol/10^6 sperm and 0.679 pmol/10^6 sperm and 0.436 pmol/10^6 sperm and 0.514 pmol/10^6 sperm.
